Experiments:
Format in all cases: cell-based
[1] = test system: Pyricularia oryzae; assay: microbe, parasite or virus in culture; conditions: 168 h, read-out: Observed activity (%)
[2] = test system: Botrytis cinerea; assay: Use Example No. 6: activity against gray mold Botrytis cinerea in the microtiter test (Botrci); conditions: 168 h, day 7 post-inoculation, efficacy as % of untreated control, read-out: Observed activity (%)
[3] = test system: Pyricularia oryzae; assay: microbe, parasite or virus in culture; conditions: 168 h, read-out: Observed activity (%); remark: listed apart in the source

Row | Structure (SMILES) | inhibition at 2 ppm [1] [%] | inhibition at 0.016 ppm [2] [%] | inhibition at 0.001 ppm [3] [%]
1 | N#Cc1nn(-c2c(Cl)cc(C(F)(F)F)cc2Cl)c(N)c1[S+]([O-])C(F)(F)F (stereo not drawn) [fipronil] | 5 |  | 
2 | COC(=O)N(OC)c1ccccc1COc1ccn(-c2ccc(Cl)cc2)n1 [pyraclostrobin] |  | 4 | 31

Source: US20180007908A1, “Pesticidal Mixtures” (BASF SE, priority 2007, published 2018)
